Results from patent US12600740B2, “Fluorinated N-acetyl glucosamine analogs and xylose derivatives” (UTI Limited Partnership, priority 2018, dated 2026).
Entries after “also recorded” stand apart in the source; their conditions may differ.

How the values were obtained:
[1] = system: CD3+ T cells; assay: Annexin V/propidium iodide staining; type: cell-based; conditions: for cell death on splenocytes: propidium iodide/annexin V staining or cell cycle analysis; for necrotic, apoptotic, dead or live cells (Annexin V/PI): isolated CD3+ T cells, 25 μM and 50 μM
Excerpt: Cell-cycle flow cytometry with propidium iodide was used to corroborate the above results, and ensure the reduction in proliferation was not due to cell death. […] To further investigate whether the reduction of proliferation was due to cell death, Annexin V and propidium iodide staining were used to differentiate necrotic cells (propidium iodide+), apoptotic cells (annexin V+), dead cells (propidium iodide+ and annexin V+), and live cells (propidium iodide-annexin V−).
Cell cycle staining with propidium iodide (PI) and analysis by flow cytometry gives percentage of cells in apoptosis, G1, G2, and synthesis, and apoptosis. Following a membrane permeabilization, PI chelates to DNA and level of staining specifies the stage of the cell cycle (e.g., G2 phase will have twice the DNA and thus twice the PI signal as G1 phase, apoptotic cells contain less DNA than healthy cells and are identified by low PI staining). 1×10^6 splenocytes were used per sample, with four replicates per condition. Cells were collected into a tube with PBS and centrifuged (200 r.p.m. for 5 minutes). Pellet was resuspended in 500 μl PBS and 500 μl ice cold 100% ethanol was slowly added with gentle vortexing of sample. Cell suspension was stored at 4° C. for at least 2 hours (up to two weeks). Next, the suspension was centrifuged at 200 r.p.m. for 3 minutes, pellet was resuspended in PBS and suspension was centrifuged at 200 r.p.m for 10 minutes at 4° C. Pellet was resuspended in 350 μl of PI staining buffer (50 μg/ml propidium iodide, 0.1% TritonX100, 0.2 mg Dnase free Rnase A in PBS) and incubated for 30-45 minutes at room temperature. Suspension was transferred to a FACs tube and analyzed. Annexin V/Propidium iodide staining was detected using the Annexin V FITC apoptosis detection kit (BD Biosciences, #556547), which was performed according to manufacturer's instructions.

[2] = system: EAE mice; assay: Experimental autoimmune encephalomyelitis (EAE) clinical score; type: in vivo, mouse
[3] = system: EAE mice; assay: Flow cytometry of spinal cord and circulating leukocytes in EAE mice; type: in vivo, mouse
Excerpt: To assess the inflammatory profile of circulating leukocytes, we performed flow cytometry using a modified protocol published previously [Bellavance, M. A., Gosselin, D., Yong, V. W., Stys, P. K. & Rivest, S. Patrolling monocytes play a critical role in CX3CR1-mediated neuroprotection during excitotoxicity. Brain Struct Funct 220, 1759-76 (2015)]. Briefly, mice were anaesthetized using ketamine/xylazine, after which blood was drawn via cardiac puncture. Heparin-coated syringes were used to draw approximately 130 μL of blood, which was then subsequently diluted with 70 μL of Hanks' Balanced Salt Solution (HBSS; Gibco) without calcium and magnesium. Fc receptors were then blocked by addition of Mouse BD Fc Block (1:100; BD Pharmingen) for 30 minutes at 4° C. Primary antibodies (1:50) were then added and incubated for 45 minutes at 4° C. The primary antibodies used were CD45-PerCP (BD Pharmingen; Clone 30-F11), CD11b-FITC (BD Pharmingen; Clone M1/70), Ly6G-APC-Cy7 (BD Pharmingen; Clone 1A8), Ly6C-V450 (BD Horizon; Clone AL-21), and CD3-PE (BD Pharmingen; Clone 17A2). Red blood cells were then lysed by rocking samples at room temperature for 12 minutes with 1 mL of BD FACS Lysing Solution (BD Biosciences). Samples were then washed at 1200 rpm for 10 minutes at 4° C., followed by two more washes at 2000 rpm for 3 minutes at 4° C. Prior to acquisition on a flow cytometer (BD LSRII), cells were then fixed in 1% formalin for 10 minutes and then resuspended in HBSS without calcium and magnesium.
For flow cytometry of the spinal cord, spinal cords were dissected following a PBS perfusion. The thoracic and lumber sacral part of isolated spinal cords were separated into neural and leucocyte populations by density gradient centrifugation using isotonic Percoll (GE Healthcare). The leukocytes samples were prepared at 4° C. in fluorescence-activated cell sorting (FACS) buffer solution (BD Biosciences) and Fc receptors were then blocked by addition of Mouse BD Fc Block (1:100; BD Pharmingen) for 30 minutes at 4° C. The cells were stained with antibodies against CD45-PerCP (BD Pharmingen; Clone 30-F11), CD11b-FITC (BD Pharmingen; Clone M1/70) and CD3-APC-Cy7 (BD Pharmingen; Clone 17A2) for 45 minutes and then washed three times with FACS buffer. The cells were fixed in 1% buffered formalin for 10 min and resuspended in the 200 μl of the FACS buffer.
Data acquisition was performed on a flow cytometer (BD FACSAria; BD Biosciences) and analysed with FlowJo software (version 8.6, TreeStar). To ensure proper compensation and gating, unstained samples, appropriate isotype controls, and single-stain controls were included. All data was analyzed using FlowJo software.

[4] = system: splenocytes; assay: Splenocyte thymidine proliferation assay (anti-CD3/anti-CD28); type: cell-based, mouse; conditions: increasing concentrations, 48 hours
[5] = system: EAE mice; assay: Perivascular cuffs per spinal cord and Imaris quantification of CD45+ cells in EAE mice; type: in vivo, mouse
Excerpt: Previously it was shown that CSPGs are accumulated in perivascular cuffs and may have a role in activating immune cells and promoting their migration into the CNS [Stephenson, E. L. et al. Chondroitin sulfate proteoglycans as novel drivers of leucocyte infiltration in multiple sclerosis. Brain: a journal of neurology 141, 1094-1110 (2018)]. For the current study, cervical spinal cord sections from EAE mice treated with Ac-4,4-diF-GlcNAc 16 or vehicle were stained with pan-laminin and CD45. Confocal images were processed by Imaris software to quantify the number of CD45+ cells and their intra-parenchymal distances from perivascular cuffs as previously described [Stephenson, E. L. et al. Chondroitin sulfate proteoglycans as novel drivers of leucocyte infiltration in multiple sclerosis. Brain: a journal of neurology 141, 1094-1110 (2018)] (FIG. 10f).
Perivascular cuffs were identified with pan-laminin staining of two basement membranes with CD45+ cells clustered within the perivascular space. To obtain the average number of perivascular cuffs per spinal cord, perivascular cuffs were counted on 4 cervical spinal cord sections (each >200 μm apart), and then averaged to obtain the average perivascular cuffs per spinal cord per mouse. The Imaris software (Bitplane, Switzerland) was used to quantify the number and distance of CD45+ cells around perivascular cuffs. CD45+ cells were registered as spots and the laminin-positive membranes were registered as surfaces. The Xtension component in Imaris ‘distance transformation’ calculated the distance of every CD45+ cell from the perivascular cuff.

[6] = system: splenocytes; conditions: shown previously (Grigorian et al. 2011); cited from earlier work
[7] = system: EAE mice; conditions: previously shown (Keough et al. 2016), 50 mgkg−1; cited from earlier work
[8] = 50 mg/kg intraperitoneal daily, day 7 to day 15
[9] = 25 mg/kg daily day 7 to 15, lumbar/thoracic spinal cord
[10] = 25 mg/kg daily day 7 to 15, spinal cord

## CCCC(=O)OC1OC(COC(C)=O)[C@@H](F)[C@H](OC(C)=O)C1NC(C)=O (mixture of isomers) [Compound 8, 2-Acetamido-3,6-di-O-acetyl-1-O-butanoyl-2,4-dideoxy-4-fluoro-α/β-D-glucopyranose]
[1]
  cell death on splenocytes: did not show detectable cell death

## CC(=O)NC1C(O)OC(COC(C)=O)[C@@H](F)[C@@H]1OC(C)=O (mixture of isomers) [Compound 10]
[2]; [8]
  EAE clinical score: did not reduce EAE clinical score; also recorded: no significant improvement in EAE clinical score
[1]
  cell death on splenocytes: did not show detectable cell death

## CC(=O)NC1C(OC(C)=O)OC(COC(C)=O)C(F)(F)[C@@H]1OC(C)=O (mixture of isomers) [Compound 16, 2-Acetamido-1,3,6-tri-O-acetyl-2,4-dideoxy-4,4-difluoro-α/β-D-xylo-hexopyranose]
[3]; 25 mg/kg daily day 7 to 15, blood at peak EAE
  circulating monocyte, neutrophil and lymphocyte populations: no significant difference; also recorded: did not show changes in monocyte or lymphocyte populations; also recorded: did not affect levels of circulating leukocytes
[3]; [9]
  CD45+ CD3+ T lymphocytes within the spinal cord: significantly lowered
  CD45HiCD11b+ infiltrating monocytes/macrophages in spinal cord: significantly decreased
[3]; [10]
  median fluorescence intensity of CD11b of CD11b+CD45+ cells: significantly reduced
  median fluorescence intensity of CD45 in CD11b+CD45+ cells: decreased
[2]; 25 mg/kg daily from peak clinical severity (day 15)
  EAE clinical score: significantly reduced EAE clinical severity; also recorded: did not significantly improve disability until nine days after treatment
[2]; 25 mg/kg intraperitoneal daily, day 7 to day 15
  sum of scores (burden of disease): significantly reduced
[2]; 25 mg/kg intraperitoneal daily, day 7 to day 15 (pre-onset)
  EAE clinical score: significantly lower EAE clinical scores than the control group
[2]; [8]
  EAE clinical score: pronounced reduction in EAE clinical severity beyond that seen for the mono-fluorinated Ac-4-F-GlcNAc
[1]
  necrotic, apoptotic, dead or live cells (Annexin V/PI): no evidence of causing non-specific cell apoptosis or necrosis; also recorded: did not display notable changes in their proportion of necrotic, apoptotic, dead, or live cells
  cell death on splenocytes: did not show detectable cell death
[4]
  dose-response to reduce proliferation in splenocytes: more effective than Ac-4-F-GlcNAc 3 at lower concentrations
[5]; 0 to 100 μm, two-way repeated measures ANOVA
  CD45+ cells by distance from perivascular cuffs, overall versus vehicle: overall significant difference
[5]; 25 mg/kg daily day 7 to 15
  average number of perivascular cuffs per spinal cord: significantly reduced average number of perivascular cuffs
[5]; 25 mg/kg daily day 7 to 15, cervical spinal cord
  CD45+ cells in the vicinity of perivascular cuffs (within 100 μm): significantly fewer CD45+ cells in the vicinity of perivascular cuffs
[5]; 50-100 μm
  number of CD45+ cells at 50-100 μm from perivascular cuffs versus vehicle: significant difference

## CC(=O)N[C@H]1[C@H](OC(C)=O)O[C@H](COC(C)=O)[C@@H](OC(C)=O)[C@@H]1OC(C)=O [Compound 1, reference compound]
[6]
  splenocyte proliferation: reduction in splenocyte proliferation

## CC(=O)NC1C(OC(C)=O)OC(COC(C)=O)[C@@H](F)C1OC(C)=O (some centres unmarked) [Compound 3, reference compound]
[1]
  necrotic, apoptotic, dead or live cells (Annexin V/PI): no evidence of causing non-specific cell apoptosis or necrosis; also recorded: did not display notable changes in their proportion of necrotic, apoptotic, dead, or live cells
  cell death on splenocytes: did not show detectable cell death
[7]
  EAE clinical disability: attenuated the severity of mice afflicted with EAE; also recorded: reduced the ensuing EAE clinical disability
